{"source": "patent US20240245787A1", "about": "“E3 LIGASE BINDERS AND USES THEREOF” (President and Fellows of Harvard College, priority 2021, published 2024)", "key": {"[1]": {"biological_target": "CRBN/DDB1 in the presence of BD2 domain of BRD4 (Homo sapiens, UniProt O60885+Q96SW2)", "sequence (Q96SW2 whole entry, looked up, other chains not shown, the tested form may be a part)": "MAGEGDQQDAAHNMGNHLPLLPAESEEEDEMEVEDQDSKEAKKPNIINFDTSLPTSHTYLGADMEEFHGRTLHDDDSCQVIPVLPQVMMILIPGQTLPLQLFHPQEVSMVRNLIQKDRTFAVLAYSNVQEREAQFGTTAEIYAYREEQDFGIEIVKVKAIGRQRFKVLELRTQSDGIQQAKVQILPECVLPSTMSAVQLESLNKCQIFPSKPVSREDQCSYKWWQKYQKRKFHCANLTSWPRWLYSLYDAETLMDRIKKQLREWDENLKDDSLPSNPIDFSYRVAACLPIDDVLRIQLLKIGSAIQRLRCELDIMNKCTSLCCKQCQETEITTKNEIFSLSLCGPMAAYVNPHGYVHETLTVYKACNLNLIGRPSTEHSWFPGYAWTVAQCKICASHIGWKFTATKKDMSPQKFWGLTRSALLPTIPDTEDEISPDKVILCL", "experiment": "biochemical"}, "[2]": {"biological_target": "CRBN/DDB1 in the presence of BD1 domain of BRD4 (Homo sapiens, UniProt O60885+Q96SW2)", "experiment": "biochemical"}, "[3]": {"biological_target": "T1, BRD4 with FLAG-CRBN (Homo sapiens, UniProt O60885+Q96SW2)", "experiment": "In vivo FLAG-tag co-immunoprecipitation in HEK-CRBN cells", "type": "cell-based", "settings": "25 μM, 2 h, 1 μM MLN4924", "quoted_text": "For in vivo FLAG-tag co-immunoprecipitation, 5.0×10^6 HEK-CRBN cells were seeded and incubated at 37° C., 5% CO2 for 30 min, and then were treated with 1 μM MLN4924 for 1 h. […] The cells were collected and lysed in 1× protease/phosphatase inhibitor/1× non-denaturing lysis buffer (500 μL) and clarified by centrifugation (21,000×g, 4° C., 10 min). The soluble portion of the lysate was collected and 200 μL of lysate was incubated with of protein G magnetic beads for 20 min (20 μL) to minimize the non-specific binding. […] The magnetic beads were washed with 1× non-denaturing lysis buffer (5×500 μL). Then, the enriched proteins were eluted by addition of 40 μL of 2× SDS-PAGE loading buffer and heated at 95 °C for 5 min prior to Western blot analysis."}, "[4]": {"tested_on": "GST-BRD4 and His-CRBN/DDB1", "experiment": "AlphaScreen for ternary complex formation", "type": "binding", "settings": "recombinant GST-BRD4 and His-CRBN/DDB1", "protocol": "AlphaScreen buffer (3× stock solution: 150 mM HEPES pH 7.4, 600 mM NaCl, 0.3% w/v BSA, 3 mM TCEP) was prepared fresh for each experiment. A 3× stock solution of each compound (60 μM, 3% DMSO final/1× AlphaScreen buffer) and a series of 2-fold serial dilutions, in 3% DMSO/1× AlphaScreen buffer, were prepared fresh for each experiment. A solution of 750 nM His6-CRBN/DDB1, 375 nM GST-BRD4/1× AlphaScreen buffer (5 μL) was added to each well of a 384-well Optiplate. Then, compound (5 μL) was added, with each concentration assayed in triplicate. As a positive control, 10 μL 100 nM GST-His6 was added to three wells. The plate was sealed with TopSeal A, centrifuged (200× g, 25° C., 1 min), and incubated at 25° C. for 1 h. Under low light, the seal was removed and 5 μL of 60 μg/mL AlphaScreen Glutathione Donor beads, 60 μg/mL AlphaLISA Nickel Chelate […] beads/1× AlphaScreen buffer was added to each well. The plate was sealed with TopSeal A, centrifuged (200× g, 25° C., 1 min), and incubated at 25° C. for 1 h. The seal was removed and the plate was analyzed. Prior to analysis, the plate reader was calibrated with a plate containing 15 μL of 20 μg/mL Omnibeads/1× AlphaScreen buffer in the corner wells. Analysis was performed in Graphpad Prism, using the vehicle-treated wells as the baseline, fitting the signal from each compound to a Gaussian curve, and calculating the area under the curve (AUC)."}, "[5]": {"experiment": "FIG. 22C", "from_the_text": "Table printed on a drawing sheet, FIG. 22C\nFirst reader's note: Per the description this is an in vitro permeability assay in Caco-2 cells; Boc-FcQ and Boc-FcN are Boc-protected dipeptide cyclic imides (cyclimids)."}, "[6]": {"tested_on": "MM.1S cells", "experiment": "Cell viability (MTT) assay", "type": "cell-based", "settings": "Homo sapiens, MM1.S, 120 h, 5 d, read-out: IC50 (anti-proliferative effect)", "protocol": "2.0×10^4 MM.1S cells were seeded in each well of a 96-well plate containing 100 μL RPMI160 media supplemented with 10% FBS and 1× penicillin-streptomycin. The compound of interest was added to each well to a final concentration of 10 nM-100 μM from 100× stock solutions in 4% DMSO/PBS (1 μL). Samples were incubated at 37° C., 5% CO2 for 5 days. Each well was treated with 3-(4,5-Dimethylthiazol-2-yl)-2,5-diphenyltetrazolium (MTT, 4 mg/mL, 10 μL), and the treated plate was incubated at 37° C., 5% CO2 for 3 h. The formazan crystals were solubilized by the addition of 100 μL of 10% SDS, 0.01 M HCl per well, and the plate was allowed to incubate at 37° C. overnight. The absorbance at 570 nm was measured to quantify the formazan generated in each well. The blank was defined by wells containing media and MTT reagent without any cells. For each treatment well, the cell viability was calculated by subtracting the blank value and normalizing to the average absorbance of the vehicle control wells (cells treated with 4% DMSO/PBS)."}, "[7]": {"biological_target": "CRL4^CRBN complex (Homo sapiens, UniProt Q96SW2)", "experiment": "In vitro ubiquitylation of C-terminally tagged proteins", "type": "biochemical", "settings": "CRL4^CRBN complex isolated from HEK-CRBN cells, 30° C., 90 min", "quoted_text": "5.0×10^6 HEK-CRBN cells were collected per pellet, flash frozen with liquid nitrogen, and stored at −80° C. until use. Approximately 1 pellet per 1.5 samples was thawed on ice, and each pellet was resuspended in 1× protease inhibitor cocktail/Pierce IP lysis buffer (250 μL). Lysates were incubated on ice for 10 min, then were clarified by centrifugation (21,000×g, 4° C., 10 min). The soluble portions of the lysates were collected, with 1 mL lysate per tube, and 150 μL of TBS-washed anti-FLAG M2 beads were added. Samples were incubated at 4° C. on a roller for 1 h. Using a magnetic tube rack, the beads were collected and washed 3× with 1 mL TBS. Each sample was then eluted with by adding 100 μL of 100 ng/μL 3× FLAG peptide/TBS and incubating at 4° C. on a roller for 1 h. The eluent was collected. […] Ubiquitylation mastermixes were prepared at 2× with and without E1 and E2 enzymes. Final concentrations (1×) of the mastermix components were 0.2 μM UBE1, 2 μM UbcH5a, 1 mM UbcH5c, 400 μg/mL KO ubiquitin, 1 μM ubiquitin aldehyde, 1× Mg-ATP, 1× E3 ligase buffer, 10 μM MG132, 100 nM MG101. […] Reactions were incubated at 30° C. for 90 min then were stopped by the addition of 6.25 μL of 5× SDS-PAGE loading buffer. Samples were heated at 95° C. for 5 min prior to analysis by SDS-PAGE and Western blotting."}, "[8]": {"tested_on": "IKZF1", "experiment": "Global quantitative proteomics of MM.1S cells", "type": "cell-based, human (Homo sapiens)", "settings": "10 μM, 10 h", "quoted_text": "Global proteomics samples were prepared in biological triplicate for each condition. 1.5×10^6 HEK293T or MM.1S cells were seeded in 6-well plates and incubated at 37° C., 5% CO2 for 30 min. Small molecules of interested were then added, and cells were incubated at 37° C., 5% CO2 for the indicated time. […] After protein quantification by BCA protein assay, the lysates were diluted to 1 mg/mL with the lysis buffer. The diluted lysates (100 μL) were reduced by addition of dithiothreitol (20 mM) at 24° C. for 30 min then alkylated by addition of iodoacetamide (40 mM) and incubation in the dark at 24° C. for 30 min.\nS-Trap buffer (90% methanol, 0.1 M TEAB, pH 7.1, 900 μL) was then added. Each sample was transferred to a S-Trap micro column. Using a vacuum manifold, the columns were washed with S-Trap buffer (3×150 μL). […] The digested peptides were eluted by sequential addition of 50 mM TEAB pH 8.0 (40 μL), ddH2O (40 μL) and 0.2% formic acid, 50% acetonitrile/water (35 μL), with each elution collected by centrifugation (4,000× g, 24° C., 1 min) in a clean Eppendorf tube. The eluted samples were concentrated to dryness in a vacufuge and resuspended in 45 or 80 μL ddH2O for 9 or 16 samples, respectively. For each resuspended sample, 5 μL was taken for labeling with TMT reagent (2 μL) at 24° C. for 1 h such that the combined total protein was 100 μg. […] The TMT-labeled samples were combined and dried in a vacufuge. The dried sample was resuspended in 300 μL 0.1% trifluoroacetic acid (TFA) and fractionated to 20 fractions using a Pierce high pH reversed-phase peptide fractionation kit. […] The first fraction (4% acetonitrile/0.1% TEA) was excluded from LC-MS/MS analysis. The other fractions were concentrated to dryness and each sample was resuspended in 20 μL of 0.1% formic acid prior to LC-MS/MS analysis. […]\nAnalysis was performed in Thermo Scientific Proteome Discoverer version 2.4.1.15. […] The TMT reporter ions were quantified using the Reporter Ions Quantifier node and normalized such that the summed peptide intensity per channel was equal. […]"}, "[9]": {"biological_target": "T1, BRD4 with FLAG-CRBN", "experiment": "In vitro FLAG-tag co-immunoprecipitation in HEK-CRBN lysates", "type": "binding", "settings": "1 μM, 2 h", "quoted_text": "For in vitro FLAG-tag co-immunoprecipitation, 5.0×10^6 HEK-CRBN cells were collected by centrifugation, lysed in 1× protease/phosphatase inhibitor/1× non-denaturing lysis buffer (400 μL), and cleared by centrifugation (21,000×g, 4° C., 10 min). The soluble portion of the lysate was collected and 200 μL of lysate was incubated with compound of interest at 4° C. for 2 h. […] The magnetic beads were washed with 1× non-denaturing lysis buffer (5×500 μL). The enriched proteins were eluted by the addition of 40 μL of 2× SDS-PAGE loading buffer and heated at 95° C. for 5 min prior to Western blot analysis."}, "[10]": {"biological_target": "BRD4 (Homo sapiens, UniProt O60885)"}, "[11]": {"tested_on": "IKZF1", "experiment": "Western blot of IKZF1 levels in MM.1S cells", "type": "cell-based", "settings": "10 μM", "quoted_text": "As needed, a BCA assay was performed to determine the protein concentration of lysates and the concentration was adjusted using lysis buffer. 5× SDS-PAGE loading buffer (5% (v/v) β-mercaptoethanol, 0.02% (w/v) bromophenol blue, 30% (v/v) glycerol, 10% (w/v) SDS/250 mM Tris pH 6.8) was added to the protein samples to a final concentration of 1× and the samples were heated at 95° C. for 5 min. […] Gels were transferred to membranes using the Invitrogen iBlot 2 dry blotting system and iBlot 2 nitrocellulose transfer stacks, using program PO (1 min at 20 V, 4 min at 23 V, 2 min at 25 V) for most proteins and 8 min at 25 V for high molecular weight proteins. Membranes were stained with Ponceau S solution to visualize transfer and protein loading. […] Membranes were washed (3×5 min) with TBST and incubated with secondary antibodies at 24° C. for 1 h. Membranes were washed (3×5 min) with TBST and the results were obtained by chemiluminescence and/or IR imaging using Azure 600 or c600."}, "[12]": {"settings": "read-out: KD [ternary] (nM) | BD2"}, "[13]": {"settings": "read-out: KD [ternary] (nM) | BD1"}}, "note": "Like-named read-outs stand apart in the source and are kept apart here. No end group written: not given here."}
{"compound": "Cc1sc2c(c1C)C(c1ccc(Cl)cc1)=N[C@@H](CC(=O)NCCCCCCCCC(=O)N1CCC[C@H]1C(=O)N[C@H]1CCC(=O)NC1=O)c1nnc(C)n1-2", "note": "[JQ1-PcQ]", "values": [{"measurement": "Kd", "setting": "[1]; [12]", "result": 335, "unit": "nM"}, {"measurement": "Kd", "setting": "[2]; [13]", "result": 381, "unit": "nM"}]}
{"compound": "Cc1sc2c(c1C)C(c1ccc(Cl)cc1)=N[C@@H](CC(=O)NCCCCCCCCC(=O)N[C@@H](Cc1ccccc1)C(=O)N[C@H]1CCC(=O)NC1=O)c1nnc(C)n1-2", "note": "[JQ1-FcQ]", "values": [{"measurement": "co-immunoprecipitation of BRD4 by FLAG-CRBN in cells", "setting": "[3]", "result": "readily co-immunoprecipitated"}, {"measurement": "ternary complex formation (AlphaScreen signal / relative area under the curve normalized to dBET6)", "setting": "[4]", "result": "stronger ternary complex than dBET6"}]}
{"compound": "Cc1sc2c(c1C)C(c1ccc(Cl)cc1)=N[C@@H](CC(=O)NCCCCCCCCC(=O)N[C@@H](Cc1ccc(O)cc1)C(=O)N[C@H]1CCC(=O)NC1=O)c1nnc(C)n1-2", "note": "[JQ1-YcQ]", "values": [{"measurement": "Kd", "setting": "[1]; [12]", "result": 277, "unit": "nM"}, {"measurement": "Kd", "setting": "[2]; [13]", "result": 5, "unit": "nM"}]}
{"compound": "Cc1sc2c(c1C)C(c1ccc(Cl)cc1)=N[C@@H](CC(=O)NCCCCCCCCC(=O)N[C@@H](Cc1ccccc1)C(=O)N[C@H]1CC(=O)NC1=O)c1nnc(C)n1-2", "note": "[JQ1-FcN]", "values": [{"measurement": "co-immunoprecipitation of BRD4 by FLAG-CRBN in cells", "setting": "[3]", "result": "readily co-immunoprecipitated"}, {"measurement": "ternary complex formation (AlphaScreen signal / relative area under the curve normalized to dBET6)", "setting": "[4]", "result": "stronger ternary complex than dBET6"}]}
{"compound": "Nc1cccc2c1CN(C1CCC(=O)NC1=O)C2=O", "note": "(centres unmarked) [lenalidomide, Lenalidomide]", "values": [{"measurement": "Papp (A-B) (10^-6, cm/s)", "setting": "[5]", "result": "1.22 10^-6, cm/s"}, {"measurement": "Papp (B-A) (10^-6, cm/s)", "setting": "[5]", "result": "4.41 10^-6, cm/s"}]}
{"compound": "Nc1cccc2c1CN(C1CCC(=O)NC1=O)C2=O", "note": "(centres unmarked) [lenalidomide, Lenalidomide, reference compound]", "values": [{"measurement": "IC50", "setting": "[6]", "result": 31600, "unit": "nM"}]}
{"compound": "GFP-FQ: \"GFPs tagged with uncyclized glutamine and asparagine, GFP-FQ and GFP-FN\" (TGGSLPETFQ; not fully specified (N-terminus))", "values": [{"measurement": "in vitro ubiquitylation of tagged GFP by CRL4^CRBN complex", "setting": "[7]", "result": "no modification"}]}
{"compound": "CC(C)(C)OC(=O)NC(Cc1ccccc1)C(=O)NC1CCC(=O)NC1=O", "note": "(centres unmarked) [Boc-FcQ]", "values": [{"measurement": "additional substrates degraded (global proteomics)", "setting": "[8]", "result": "no additional substrates were degraded"}, {"measurement": "degradation of IKZF1 (global proteomics)", "setting": "[8]", "result": "not susceptible to degradation"}, {"measurement": "Papp (B-A) (10^-6, cm/s)", "setting": "[5]", "result": "18.00 10^-6, cm/s"}, {"measurement": "Recovery (%)BL-AP", "setting": "[5]", "result": 91.46, "unit": "%"}, {"measurement": "IC50", "setting": "[6]", "result": "> 100000", "unit": "nM"}]}
{"compound": "Cc1sc2c(c1C)C(c1ccc(Cl)cc1)=N[C@@H](CC(=O)NCCCCCCCCC(=O)N[C@@H](C)C(=O)N[C@H]1CCC(=O)NC1=O)c1nnc(C)n1-2", "note": "[JQ1-AcQ]", "values": [{"measurement": "Kd", "setting": "[1]; [12]", "result": 76, "unit": "nM"}]}
{"compound": "Cc1sc2c(c1C)C(c1ccc(Cl)cc1)=N[C@@H](CC(=O)NCCCCCCCCC(=O)N[C@@H](CCC(=O)O)C(=O)N[C@H]1CCC(=O)NC1=O)c1nnc(C)n1-2", "note": "[JQ1-EcQ]", "values": [{"measurement": "co-immunoprecipitation of BRD4 with FLAG-CRBN in lysates", "setting": "[9]", "result": "equivalent co-immunoprecipitation of BRD4 with FLAG-CRBN"}]}
{"compound": "Cc1sc2c(c1C)C(c1ccc(Cl)cc1)=N[C@@H](CC(=O)NCCCCCCCCC(=O)N[C@H]1CCC(=O)NC1=O)c1nnc(C)n1-2", "note": "[JQ1-cQ]", "values": [{"measurement": "Kd", "setting": "[1]", "result": 267, "unit": "nM"}, {"measurement": "degradation of BRD4 (functional degrader or not)", "setting": "[10]", "result": "inactive"}, {"measurement": "ternary complex formation (AlphaScreen signal / relative area under the curve normalized to dBET6)", "setting": "[4]", "result": "ternary complex formation equivalent to the active JQ1-GcQ"}, {"measurement": "Kd", "setting": "[2]", "result": 245, "unit": "nM"}]}
{"compound": "Cc1sc2c(c1C)C(c1ccc(Cl)cc1)=N[C@@H](CC(=O)NCCCCCCCCC(=O)N[C@H]1CC(=O)NC1=O)c1nnc(C)n1-2", "note": "[JQ1-cN]", "values": [{"measurement": "Kd", "setting": "[1]", "result": 390, "unit": "nM"}, {"measurement": "Kd", "setting": "[2]", "result": 538, "unit": "nM"}]}
{"compound": "GFP-FN: \"GFPs tagged with uncyclized glutamine and asparagine, GFP-FQ and GFP-FN\" (TGGSLPETFN; not fully specified (N-terminus))", "values": [{"measurement": "in vitro ubiquitylation of tagged GFP by CRL4^CRBN complex", "setting": "[7]", "result": "no modification"}]}
{"compound": "Nc1cccc2c1C(=O)N(C1CCC(=O)NC1=O)C2=O", "note": "(centres unmarked) [pomalidomide, Pomalidomide, reference compound]", "values": [{"measurement": "degradation of IKZF1 (global proteomics)", "setting": "[8]", "result": "selective degradation of the substrate IKZF1"}, {"measurement": "degradation of IKZF1 (Western blot)", "setting": "[11]", "result": "degraded"}]}
{"compound": "Cc1sc2c(c1C)C(c1ccc(Cl)cc1)=N[C@@H](CC(=O)NCCCCCCCCC(=O)N[C@@H](CC(=O)O)C(=O)N[C@H]1CCC(=O)NC1=O)c1nnc(C)n1-2", "note": "[JQ1-DcQ]", "values": [{"measurement": "co-immunoprecipitation of BRD4 with FLAG-CRBN in lysates", "setting": "[9]", "result": "equivalent co-immunoprecipitation of BRD4 with FLAG-CRBN"}]}
